Key:
BxPC-3 cells [1] = assay: Cell viability assay (CellTiter Glo); type: cell-based; details: Homo sapiens, 72 h
BxPC-3 cells [2] = assay: Association with olaparib (given alone or in combination), cell viability / cytotoxicity; type: cell-based; details: olaparib 10 μM, 72 h
Experimental: BxPC-3 cells were grown in RPMI 1640 containing 10% FBS, 100 U/ml penicillin/streptomycin, 2 mM glutamine. All media and supplements were from Sigma-Aldrich. Cultures were routinely tested for Mycoplasma contamination. Treatments (Olaparib and BRCA2-Rad51 disruptors) were administered in culture medium supplemented with 0.6% DMSO. The same amount of DMSO was added to the control, untreated cultures.
Cell viability was assessed by CellTiter Glo, Luminescent Cell Viability Assay. Briefly, BxPC-3 cells (1×10^4/well) were plated in white 96-well plates with clear bottom and treated for 72 h with olaparib (10 μM) or with the BRCA2-Rad51 disruptors, given alone or in combination. After treatments, the plate was allowed to equilibrate at room temperature for 30 min and the CellTiter-Glo reactive was directly added to each well. The plate was kept on a shaker for 2 min to induce cell lysis and its luminescence was measured by using a Fluoroskan Ascent FL reader (Labsystems) using manufacturer's instructions.
Cell death was assessed by applying the CellTox™ Green Cytotoxicity assay (Promega). Briefly, BxPC-3 (1×10^4/well) were plated in black 96-well plates with clear bottom and treated for 72 h with olaparib (10 μM) or with the BRCA2-Rad51 disruptors, given alone or in combination. At the end of treatment, the CellTox™ dye was added to cell cultures and the green fluorescence signal, which is produced by the binding interaction with dead cell DNA, was measured following the manufacturer's instructions. The fluorescence signal was detected using the EnSpire 2300 Multilabel Reader (Perkin Elmer); for each sample, the obtained signal was normalized on the number of viable cells, detected by the CellTiterGlo reagent.

[3] = tested on: Homologous recombination (HR) in BxPC3 cells; assay: Homologous recombination assay (HR); type: cell-based; details: Homo sapiens, BXPC-3, read-out: HR inhibition: IC50
Experimental: Homologous recombination (HR) was assessed by using a commercially available assay (Norgen). This assay is based on cell co-transfection with two plasmids that, upon cells entering, recombinate. The efficiency of HR can be assessed by real time PCR, using primer mixtures included in the assay kit. Different primer mixtures allow differentiation between the original plasmid backbones and their recombination product.
BxPC3 cells (2×10^3 per well) were seeded in a 24-well plate and allowed to adhere overnight. Co-transfection with the two plasmids was performed in Lipofectamine 2000 (Invitrogen) for 5 h, according to the manufacturer's instructions. During transfection cells were exposed at different doses of BRCA2-Rad51 disruptors, dissolved in RPMI without serum in the presence of 0.6% DMSO.
After washing with PBS, cells were harvested, and DNA was isolated using QIAamp® DNA Mini Kit (Qiagen). Sample concentration was measured using an ONDA Nano Genius photometer.
The thermal cycler (CFX96 ™ Real Time System, BioRad) was programmed as follows: initial denaturation 95° C. for 3 min then 95° C. for 15 sec., 61° C. for 30 sec., 72° C. for 1 min and repeated for 40 cycles. Melt curve analysis was done. Samples were run in triplicate, in 10 μl reaction volume containing 25 ng of template.
In each DNA sample from control and treated cultures, the ΔCt between the recombination product and the backbone plasmids was calculated. HR efficiency was evaluated from the 2^−ΔΔ^Ct value obtained by comparing treated vs control samples.

BRC4/RAD51 interaction = biological target: T1, BRC4/RAD51 interaction (Homo sapiens, UniProt Q06609); assay: Competitive ELISA assay, disruption of BRC4/RAD51 interaction; type: binding; details: human Rad51, biotinylated BRC4 peptide
T1 construct: purchased Creative Biomart (Rad51); Life Technologies (BRC4 peptide)
T1 sequence (Q06609 1-339): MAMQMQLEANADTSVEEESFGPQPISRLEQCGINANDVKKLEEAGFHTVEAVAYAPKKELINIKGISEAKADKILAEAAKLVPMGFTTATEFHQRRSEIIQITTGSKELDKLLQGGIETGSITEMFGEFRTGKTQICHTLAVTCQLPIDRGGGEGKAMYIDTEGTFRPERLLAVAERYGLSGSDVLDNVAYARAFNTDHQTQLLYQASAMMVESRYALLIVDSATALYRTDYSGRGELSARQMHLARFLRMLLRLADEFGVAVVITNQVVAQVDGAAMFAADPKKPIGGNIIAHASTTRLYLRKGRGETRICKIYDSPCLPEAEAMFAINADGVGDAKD
Procedure, shortened: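 Competitive ELISA: plates coated with biotinylated BRC4 peptide, blocked with 1% BSA/PBST, then hybridized overnight with human Rad51 protein. Compounds tested in triplicate dose-response, […], 1% DMSO. Bound Rad51 detected colorimetrically with anti-Rad51 antibody, HRP secondary and TMB quenched with HCl.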

CCC(=O)N1N=C(c2c(-c3ccccc3)c3cc(Cl)ccc3[nH]c2=O)CC1c1ccc(OC)cc1 (stereo not shown) [d.12, 6-chloro-3-[3-(4-methoxyphenyl)-2-propanoyl-3,4-dihydropyrazol-5-yl]-4-phenyl-1H-quinolin-2-one]
EC50 (BxPC-3 cells [1]): 19 µM
Olaparib Assoc. (BxPC-3 cells [2]): synergy
IC50 [3]: 18.4 µM
EC50 (BRC4/RAD51 interaction): 19 µM
